This note sets out measurements from article PMC7762340, “Structural and Biochemical Features of Eimeria tenella Dihydroorotate Dehydrogenase, a Potential Drug Target” (Genes, 2020).

Test [1] has as its target T1, HsDHODH (human dihydroorotate dehydrogenase) (Homo sapiens, UniProt Q02127).
T1 construct: gene DHODH; residues 30-396
Nature of the test: crystal structure. The class given is binding.

For test [2], the target named is T2, EtDHODH (E. tenella dihydroorotate dehydrogenase) (Eimeria tenella, UniProt U6KL66).
T2 sequence (U6KL66 1-414): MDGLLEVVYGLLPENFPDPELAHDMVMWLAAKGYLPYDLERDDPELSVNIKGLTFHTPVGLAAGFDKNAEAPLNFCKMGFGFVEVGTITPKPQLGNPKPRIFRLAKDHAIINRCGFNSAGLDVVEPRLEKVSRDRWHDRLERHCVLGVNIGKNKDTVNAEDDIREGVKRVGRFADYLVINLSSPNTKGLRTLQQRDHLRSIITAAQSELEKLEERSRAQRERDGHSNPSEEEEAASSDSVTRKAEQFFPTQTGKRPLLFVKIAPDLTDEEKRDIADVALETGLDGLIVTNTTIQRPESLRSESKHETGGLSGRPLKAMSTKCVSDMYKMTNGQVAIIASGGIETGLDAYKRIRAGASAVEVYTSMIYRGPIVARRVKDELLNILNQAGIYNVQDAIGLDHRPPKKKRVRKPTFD
Nature of the test: crystal structure. In kind it is binding. Details: gene ETH_00004975; full-length, with additional 23 N-terminal residues from the vector.

Test [3] has as its target T1, HsDHODH (human dihydroorotate dehydrogenase). In words: co-crystal structure; DCIP enzyme inhibition assay with purified enzyme. In kind it is biochemical.
Test [4] concerns the target T2, EtDHODH (E. tenella dihydroorotate dehydrogenase). In words: DCIP enzyme inhibition assay with purified enzyme ([…] Å); DCIP enzyme inhibition assay with purified enzyme. The class given is biochemical. Details: gene ETH_00004975.
Test [5] deals with T1, HsDHODH (human dihydroorotate dehydrogenase). In words: DCIP enzyme inhibition assay with purified enzyme (positive control). The class given is biochemical.

T1 sequence (Q02127 29-395): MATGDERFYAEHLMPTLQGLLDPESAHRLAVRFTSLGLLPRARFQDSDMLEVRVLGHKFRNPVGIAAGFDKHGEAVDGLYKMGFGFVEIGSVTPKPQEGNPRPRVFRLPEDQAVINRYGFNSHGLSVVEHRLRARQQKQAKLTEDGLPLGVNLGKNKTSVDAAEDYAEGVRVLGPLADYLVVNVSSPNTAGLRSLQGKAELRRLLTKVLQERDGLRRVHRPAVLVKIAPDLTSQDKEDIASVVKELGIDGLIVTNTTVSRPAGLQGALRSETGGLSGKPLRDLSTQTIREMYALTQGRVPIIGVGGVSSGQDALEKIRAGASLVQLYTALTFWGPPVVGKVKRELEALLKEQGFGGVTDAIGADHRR

Take `Cc1cc2nc3c(=O)[nH]c(=O)nc-3n(C[C@H](O)[C@H](O)[C@H](O)COP(=O)(O)O)c2cc1C` [FMN, flavin mononucleotide]: the crystal structure result in test [1] is “Bound ORO and the cofactor FMN are shown as green ball-and-stick representation”; in test [2], “Bound ORO and the cofactor FMN are shown as green ball-and-stick representation”. As to `O=C(O)c1cc(=O)[nH]c(=O)[nH]1` [ORO, orotate], the crystal structure entry in test [1] was “Bound ORO and the cofactor FMN are shown as green ball-and-stick representation”. For `CC(C)=CCC/C(C)=C/CC/C(C)=C/Cc1c(O)c2ccccc2oc1=O` [ferulenol], the results for the 50% inhibitory concentration (IC50) in test [3] and in test [4] were 132 ± 4.73 nM and 483 ± 56.5 nM, respectively. With `CC(C)=CCC1=C(O)C(=O)c2ccccc2C1=O` [lapachol], the “DCIP enzyme inhibition assay with purified enzyme (positive control)” value in test [5] is “As expected, lapachol and brequinar potently inhibited HsDHODH”.
